Test results from US6403581B1, “Method of inhibition of farnesyl-protein transferase using substituted benz (cd) indol-2-imine and-amine derivatives” (American Cyanamid Company, priority 2000, dated 2002).
pIC50: −log10 of the molar value. Counter-ions that a name gives are not always drawn.

Legend:
[1] = biological target: T1, farnesyl-protein transferase (FPTase) (Homo sapiens, UniProt P49354+P49356); assay: in vitro FPTase inhibition, H-Ras as substrate for farnesylation; assay type: biochemical; conditions: H-Ras used as substrate for farnesylation
Method: (§1) Enzyme test procedure: The FPTase inhibition in vitro assay was performed according to the method as described by James, G. L., Brown, M. S., and Goldstein, J. L., Methods in Enzymology, 1995, 255, 38-46; and Garcia, M. A., et al., J. Biol. Chem., 1993, 268, 18415-18420.
(§2) Materials—Purified FPTase (Moomaw, J. F. and Casey, P. J., J. Biol. Chem., 1992, 267, 17438-17443), purified His6-Ras, inhibitor compounds at 10 mg/ml or 10 mM in 100% DMSO, ^3H-FPP (50,000 dpm/pmol) Amersham, TCA/SDS (6%/2%), TCA (6%), Glass fiber filters ([…]), vacuum manifold or 96 well filtration plates.
(§3) Methods—1. Dilute FPTase inhibitors from stock solutions to 2.5× in 2.5% DMSO, 10 mM DTT, 0.5% octyl-B-glucoside. 2. Solution #1 is added to FPTase reaction in a volume of […]. 3. Standard reaction mix, […], contains 50 mM Tris (7.5),[…], 3 mM MgCl2, 20 mM KCl, 5 mM DTT, 0.2% octyl-B-glucoside, 1% DMSO, […], 10 ng FPTase, and various concentrations of FPTase inhibitors. 4. Incubate for 30-90 min at 25° C. 5. Stop reactions with TCA/SDS (6%/2%), hold at 4° C. for 45-60 min. 6. Filter by manifold or 96 well plate, wash filter 3-5× with TCA (6%). 7. Add scintillant to filters, measure ^3H-FPP incorporation into Ras protein.
(§4) Analysis of Results—Percent inhibition by test compounds is determined by the following:
(§5) (cpm from precipitated Ras with test compounds)−(background cpm)×100=% inhibition.
(§6) (cpm from precipitated Ras without test compounds)−(background cpm)

[2] = biological target: T1, farnesyl-protein transferase (FPTase); assay: in vitro FPTase inhibition, K-Ras as substrate for farnesylation; assay type: biochemical; conditions: K-Ras used as substrate for farnesylation
Method: as §1, §2, §3, §4, §5, §6

Molecule	pIC50 [1]	pIC50 [2]	melting point [°C]
N-(1-Hexylbenz[cd]indol-2(1H)-ylidene)-3-pyridinebutanamine, Fumarate (2:3) [Example 8]	5.62	< 5.00	
Clc1ccc(CN2C(=NCCCn3ccnc3)c3cccc4c(I)ccc2c34)cc1 [Example 20, N-(1-(4-Chlorobenzyl)-6-iodobenzo[cd]indol-2-(1H)-ylidene)-3-(1H-imidazol-1-yl)-1-propanamine]	6.05		
c1ccc(CN2C(=NCCCn3ccnc3)c3cccc4cccc2c34)cc1 [Example 10, N-[1-(Phenylmethyl)benz[cd]indol-2(1H)-ylidene]-1H-imidazole-1-propanamine, Fumarate (1:2)]	6.19		
c1ccc(OCCCN2C(=NCCCn3ccnc3)c3cccc4cccc2c34)cc1 [Example 12, N-[1-(3-Phenoxypropyl)benz[cd]indol-2-(1H)-ylidene]-1H-imidazole-1-propanamine, Dihydrochloride]	5.82		
Clc1ccc(CN2C(=NCCCn3ccnc3)c3cccc4cccc2c34)cc1 [Example 15, N-[1-[(4-Chlorophenyl)methyl]benz[cd]indol-2(1H)-ylidene]-1H-imidazole-1-propanamine]	6.74		
Ic1ccc2c3c(cccc13)C(=NCCCn1ccnc1)N2 [Example 21, 3-(1H-Imidazol-1-yl)-N-(6-iodobenzo[cd]indol-2(1H)-ylidene)-1-propanamine]			185 to 188
Clc1ccc2c3c(cccc13)C(=NCCCn1ccnc1)N2Cc1ccccc1 [Example 18, N-[6-Chloro-1-(phenyl-methyl)benz[cd]indol-2(1H)-ylidene]-1H-imidazole-1-propanamine]	6.10	< 5.00	
c1cc2c3c(cccc3c1)N(CCCN1C(=NCCCn3ccnc3)c3cccc4cccc1c34)C2=NCCCn1ccnc1 [Example 6, N,N′-[1,3-Propanediylbis(benz[cd]indol-1(2H)-yl-2-ylidene)]bis-1H-imidazole-1-propanamine]	5.65	< 5.00	
N#CCCCCN1C(=NCCCn2ccnc2)c2cccc3cccc1c23 [Example 5, 2-[[3-(1H-Imidazol-1-yl)propyl]imino]-benz[cd]indole-1(2H)-pentanenitrile]	6.49	5.32	
CCCCCCCCN(CCCn1ccnc1)C1=Nc2cccc3cccc1c23 [Example 1, N-[3-(1H-Imidazol-1-yl)-propyl]-N-octyl-benz[cd]indol-2-amine, Fumarate (1:2)]	5.92	5.10	
c1cncc(CN2C(=NCCCn3ccnc3)c3cccc4cccc2c34)c1 [Example 9, N-[1-(3-Pyridinylmethyl)benz[cd]indol-2(1H)-ylidene]-1H-imidazole-1-propanamine]	5.70	< 5.00	
Clc1ccc2c3c(cccc13)C(=NCCc1cccnc1)N2Cc1ccccc1 [Example 19, N-[6-Chloro-1-(phenylmethyl)benz[cd]indol-2(1H)-ylidene]-3-pyridinethanamine]	7.00	< 5.00	

Results, then the molecule that gave them:

pIC50 [1]	pIC50 [2]	melting point [°C]	Molecule
5.17			Ic1ccc2c3c(cccc13)C(NCCCCn1ccnc1)=N2 [Example 2, N-[4-(1H-Imidazol-1-yl)-butyl]-6-iodo-benz[cd]indol-2-amine]
6.70	5.07		FC(F)(F)c1cccc(CN2C(=NCCCn3ccnc3)c3cccc4cccc2c34)c1 [Example 14, N-[1-[[3-(Trifluoromethyl)phenyl]methyl]benz[cd]indol-2(1H)-ylidene]-1H-imidazole-1-propanamine]
5.70	< 5.00		c1cc2c3c(cccc3c1)C(N1CCC(Cn3ccnc3)CC1)=N2 [Example 17, 2-[4-(1H-Imidazol-1-ylmethyl)-1-piperidinyl]-benz[cd]indole, Monohydriodide]
6.40	< 5.00		COc1cccc(CN2C(=NCCCn3ccnc3)c3cccc4cccc2c34)c1 [Example 13, N-[1-[(3-Methoxyphenyl)methyl]benz[cd]indol-2(1H)-ylidene]-1H-imidazole-1-propanamine]
5.60	< 5.00		CN1C(=NCCCn2ccnc2)c2cccc3c(CO)ccc1c23 [Example 3, 1,2-Dihydro-2-[[3-(1H-imidazol-1-yl)propyl]imino]-1-methyl-benz[cd]indole-6-methanol, Fumarate (1:1)]
5.74	< 5.00		CCCCCCN1C(=NCCCn2ccnc2)c2cccc3cccc1c23 [Example 7, N-(1-Hexylbenz[cd]indol-2(1H)-ylidene)-1H-imidazole-1-propanamine, Fumarate (1:2)]
5.55	< 5.00		c1ccc(CN2C(=NCCCCn3ccnc3)c3cccc4cccc2c34)cc1 [Example 4, N-[1-(Phenylmethyl)benz[cd]indol-2(1H)-ylidene]-1H-imidazole-1-butanamine, Fumarate (1:2)]
5.60	< 5.00		c1ccc(N2C(=NCCCn3ccnc3)c3cccc4cccc2c34)cc1 [Example 16, N-(1-Phenylbenz[cd]indol-2(1H)-ylidene)-1H-imidazole-1-propanamine]
6.22	5.02		c1ccc(CCCN2C(=NCCCn3ccnc3)c3cccc4cccc2c34)cc1 [Example 11, N-[1-(3-Phenylpropyl)benz[cd]indol-2(1H)-ylidene]-1H-imidazole-1-propanamine, Fumarate (1:2)]
		160 to 163	Ic1ccc2c3c(cccc13)C(=NCc1ccccc1)N2 [Example 22, N-Benzyl-N-(6-iodobenzo[cd]indol-2(1H)-ylidene)amine]
